Assay results reported in paper PMC8659243, “Design, Synthesis and Tumour-Selective Toxicity of Novel 1-[3-{3,5-Bis(benzylidene)-4-oxo-1-piperidino}-3-oxopropyl]-4-piperidone Oximes and Related Quaternary Ammonium Salts” (Molecules, 2021).
Counter-ions that a name gives are not always drawn.

Assays:
[1] = tested on: CEM T-lymphoblastic leukemia cells; assay: Cytotoxicity against CEM cells, MTT method, 24 h; type: cell-based; details: Homo sapiens, CCRF-CEM, concentration required to inhibit cell growth by 50%
Method: The method used for the evaluation of various compounds against human CEM cells has been reported previously. In brief, cells were grown in RPMI-1640 medium supplemented with 10% heat-inactivated fetal bovine serum. Different concentrations of compounds were added to the media, and after 24 h incubation, cytotoxicity was measured by the MTT method.

[2] = Cytotoxicity against non-malignant HPC cells, MTT method, 48 h; type: cell-based; details: human, pulp cells (HPC)
In short: (§1)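 Oral squamous carcinoma lines and normal oral cells (gingival fibroblast, periodontal ligament fibroblast, pulp) were exposed to various compound concentrations in DMEM with 10% heat-inactivated FBS at 37 °C for 48 h. Viability was read by MTT.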

[3] = Cytotoxicity against non-malignant HPLF cells, MTT method, 48 h; type: cell-based; details: human, periodontal ligament fibroblasts (HPLF)
In short: as §1

[4] = tested on: CEM cells; assay: Effect on mitochondrial membrane potential, JC-1 dye, flow cytometry; type: cell-based, human; details: CC50 and twice CC50 concentrations, 8 h
Method: The effect of 4b,c on the mitochondrial membrane potential of CEM cells was determined using a literature method. In brief, the cells were incubated with the compounds for 8 h. The neoplasms were then stained with the JC-1 dye and the results were obtained using flow cytometry.

[5] = Cytotoxicity against non-malignant HGF cells, MTT method, 48 h; type: cell-based; details: human, gingival fibroblasts (HGF)
In short: as §1

[6] = tested on: HSC-4 cells; assay: Cytotoxicity against HSC-4 cells, MTT method, 48 h; type: cell-based, human; details: for CC50: Homo sapiens, HSC-4, concentration required to kill 50% of the cells, 48 h, MTT, read-out: CC50 HSC-4; for SI HSC-4: average CC50 towards HGF, HPLF, HPC divided by CC50 against HSC-4
In short: as §1

[7] = Average over HGF, HPLF and HPC non-malignant cells; type: cell-based; details: human, HPLF and HPC non-malignant cells (average of the three)
In short: as §1

[8] = tested on: Ca9-22 cells; assay: Cytotoxicity against Ca9-22 cells, MTT method, 48 h; type: cell-based, human; details: for CC50: Homo sapiens, Ca9-22, concentration required to kill 50% of the cells, 48 h, MTT, read-out: CC50 Ca9-22; for SI Ca9-22: average CC50 towards HGF, HPLF, HPC divided by CC50 against Ca9-22
In short: as §1

[9] = tested on: HSC-2 cells; assay: Cytotoxicity against HSC-2 cells, MTT method, 48 h; type: cell-based, human; details: for CC50: Homo sapiens, HSC-2, concentration required to kill 50% of the cells, 48 h, MTT; for SI HSC-2: average CC50 towards HGF, HPLF, HPC divided by CC50 against HSC-2
In short: as §1

[10] = tested on: Ca9-22, HSC-2 and HSC-4 cells; assay: Average over Ca9-22, HSC-2 and HSC-4 neoplastic cells; type: cell-based, human; details: for CC50: Homo sapiens, average of Ca9-22, HSC-2 and HSC-4, read-out: Average CC50; for Average SI: average of SI for Ca9-22, HSC-2 and HSC-4
In short: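 Compounds applied at various concentrations to human oral squamous carcinoma lines in DMEM with 10% heat-inactivated FBS for 48 h at 37 °C; viability read by MTT. Values are averaged across the three tumour lines.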

[11] = Stability by 1H NMR in 9:1 deuterated dimethylsulfoxide and deuterium oxide; type: physicochemical; details: 37 °C
[12] = tested on: SR cells; assay: NCI in vitro screen, leukemia SR; type: cell-based; details: Homo sapiens
Description: (§2) In view of the encouraging result with CEM leukemic cells, consideration was given to an assessment in the NCI in vitro screening program. The oximes, but not the quaternary ammonium salts, were accepted for bioevaluation. Examination of the mean graphs confirms the sensitivity of leukemic cells to these compounds.

[13] = tested on: KM12 cells; assay: NCI in vitro screen, colon cancer KM12; type: cell-based; details: Homo sapiens
Description: (§3) One particular reference drug is 5-fluorouracil, which is used in treating colon cancers.

[14] = tested on: HT29 cells; assay: NCI in vitro screen, colon cancer HT29; type: cell-based; details: Homo sapiens, HT-29
Description: as §3

[15] = tested on: Colo205 cells; assay: NCI in vitro screen, colon cancer Colo205; type: cell-based; details: Homo sapiens, COLO 205
Description: as §3

[16] = tested on: SW-620 cells; assay: NCI in vitro screen, colon cancer SW-620; type: cell-based; details: Homo sapiens
Description: as §3

[17] = tested on: HCT-116 cells; assay: NCI in vitro screen, colon cancer HCT-116; type: cell-based; details: Homo sapiens
Description: as §3

[18] = tested on: All Cell Lines; assay: NCI in vitro screen, all cell lines; type: cell-based; details: Homo sapiens
Description: as §3

[19] = tested on: HL-60 (TB) cells; assay: NCI in vitro screen, leukemia HL-60 (TB); type: cell-based; details: Homo sapiens
Description: as §2

[20] = tested on: leukemia cells; assay: NCI in vitro screen, average of leukemia cells; type: cell-based; details: Homo sapiens
Description: as §2

[21] = tested on: colon cancer cells; assay: NCI in vitro screen, average of colon cancer cells; type: cell-based; details: Homo sapiens
Description: as §3

[22] = tested on: HCC-2998 cells; assay: NCI in vitro screen, colon cancer HCC-2998; type: cell-based; details: Homo sapiens
Description: as §3

[23] = tested on: HCT-15 cells; assay: NCI in vitro screen, colon cancer HCT-15; type: cell-based; details: Homo sapiens
Description: as §3

[24] = tested on: K-562 cells; assay: NCI in vitro screen, leukemia K-562; type: cell-based; details: Homo sapiens, K562
Description: as §2

[25] = tested on: RPMI-8226 cells; assay: NCI in vitro screen, leukemia RPMI-8226; type: cell-based; details: Homo sapiens
Description: as §2

[26] = tested on: Molt-4 cells; assay: NCI in vitro screen, leukemia Molt-4; type: cell-based; details: Homo sapiens
Description: as §2

C[N+]1(CCC(=O)N2C/C(=C\c3ccc(F)cc3)C(=O)/C(=C/c3ccc(F)cc3)C2)CCC(=NO)CC1 (stereo not shown) [Compound 4b, (3~{E},5~{E})-3,5-bis[(4-fluorophenyl)methylene]-1-[3-(4-hydroximino-1-piperidyl)propanoyl]piperidin-4-one methiodide]
IC50 [1]: 1050 ± 380 nM
CC50 at 48 h [2]: 11300 ± 2590 nM
CC50 at 48 h [3]: 9130 ± 480 nM
effect on the mitochondrial membrane potential (MMP) [4]: interfered with the MMP
CC50 at 48 h [5]: 4500 ± 1390 nM
CC50 [6]: 210 ± 10 nM
SI HSC-4 [6]: 39.6
CC50 at 48 h [7]: 8310 nM
CC50 [8]: 290 ± 230 nM
SI Ca9-22 [8]: 28.7
CC50 [9]: 420 ± 140 nM
SI HSC-2 [9]: 19.8
CC50 [10]: 310 nM
Average SI [10]: 29.4

C[N+]1(CCC(=O)N2C/C(=C\c3ccccc3)C(=O)/C(=C/c3ccccc3)C2)CCC(=NO)CC1 (stereo not shown) [Compound 4a, (3~{E},5~{E})-3,5-bis-benzylidine-1-[3-(4-hydroximino-1-piperidyl)propanoyl]piperidin-4-one methiodide]
IC50 [1]: 7620 ± 1440 nM
CC50 at 48 h [2]: 16800 ± 680 nM
CC50 at 48 h [3]: 24600 ± 1100 nM
CC50 at 48 h [5]: 9650 ± 1230 nM
CC50 [6]: 580 ± 40 nM
SI HSC-4 [6]: 29.3
CC50 at 48 h [7]: 17000 nM
stability: 1H NMR spectra in dissolution and after 48 h incubation [11]: identical
melting point: 173 °C
CC50 [8]: 560 ± 10 nM
SI Ca9-22 [8]: 30.4
CC50 [9]: 1450 ± 160 nM
SI HSC-2 [9]: 11.7
CC50 [10]: 860 nM
Average SI [10]: 23.8

O=C1/C(=C/c2ccccc2)CN(C(=O)CCN2CCC(=NO)CC2)C/C1=C\c1ccccc1 (as salt: hydrochloride) [Compound 3a, (3~{E},5~{E})-3,5-bis-benzylidine-1-[3-(4-hydroximino-1-piperidyl)propanoyl]piperidin-4-one hydrochloride]
melting point: 172.3 °C

O=C1/C(=C/c2ccccc2)CN(C(=O)CCN2CCC(=NO)CC2)C/C1=C\c1ccccc1 [Compound 3a, (3~{E},5~{E})-3,5-bis-benzylidine-1-[3-(4-hydroximino-1-piperidyl)propanoyl]piperidin-4-one hydrochloride]
IC50 [12]: 330 nM
IC50 [1]: 5390 ± 260 nM
IC50 [13]: 660 nM
IC50 [14]: 1200 nM
CC50 at 48 h [2]: 11500 ± 2570 nM
CC50 at 48 h [3]: 14300 ± 3790 nM
IC50 [15]: 1700 nM
CC50 at 48 h [5]: 7110 ± 470 nM
IC50 [16]: 320 nM
CC50 [6]: 440 ± 160 nM
SI HSC-4 [6]: 25.0
IC50 [17]: 680 nM
CC50 at 48 h [7]: 11000 nM
IC50 [18]: 1510 nM
IC50 [19]: 2600 nM
IC50 [20]: 850 nM
IC50 [21]: 1100 nM
stability: 1H NMR spectra in dissolution and after 48 h incubation [11]: identical
IC50 [22]: 1740 nM
CC50 [8]: 650 ± 70 nM
SI Ca9-22 [8]: 16.9
IC50 [23]: 1380 nM
IC50 [24]: 400 nM
CC50 [9]: 890 ± 60 nM
SI HSC-2 [9]: 12.4
CC50 [10]: 660 nM
Average SI [10]: 18.1
IC50 [25]: 320 nM
IC50 [26]: 690 nM

COc1cc(/C=C2\CN(C(=O)CCN3CCC(=NO)CC3)C/C(=C\c3cc(OC)c(OC)c(OC)c3)C2=O)cc(OC)c1OC [Compound 3h, (3~{E},5~{E})-1-[3-(4-hydroximino-1-piperidyl)propanoyl]-3,5-bis[(3,4,5-trimethoxyphenyl)methylene]piperidin-4-one]
IC50 [12]: 300 nM
IC50 [1]: 2310 ± 300 nM
IC50 [13]: 200 nM
IC50 [14]: 330 nM
CC50 at 48 h [2]: 1800 ± 600 nM
CC50 at 48 h [3]: 5220 ± 690 nM
IC50 [15]: 260 nM
CC50 at 48 h [5]: 2180 ± 230 nM
IC50 [16]: 300 nM
CC50 [6]: 300 ± 150 nM
SI HSC-4 [6]: 10.2
IC50 [17]: 210 nM
CC50 at 48 h [7]: 3070 nM
IC50 [18]: 1220 nM
IC50 [19]: 270 nM
IC50 [20]: 300 nM
IC50 [21]: 390 nM
IC50 [22]: 210 nM
CC50 [8]: 70 ± 30 nM
SI Ca9-22 [8]: 43.9
IC50 [23]: 1230 nM
IC50 [24]: 320 nM
CC50 [9]: 230 ± 20 nM
SI HSC-2 [9]: 13.4
CC50 [10]: 200 nM
Average SI [10]: 22.5
IC50 [25]: 320 nM
IC50 [26]: 290 nM

O=C1/C(=C/c2ccc(Cl)cc2)CN(C(=O)CCN2CCC(=NO)CC2)C/C1=C\c1ccc(Cl)cc1 [Compound 3c, (3~{E},5~{E})-3,5-bis[(4-chlorophenyl)methylene]-1-[3-(4-hydroximino-1-piperidyl)propanoyl]piperidin-4-one hydrochloride]
IC50 [12]: 40 nM
IC50 [1]: 15900 ± 940 nM
IC50 [13]: 220 nM
IC50 [14]: 300 nM
CC50 at 48 h [2]: 26100 ± 35900 nM
CC50 at 48 h [3]: 8030 ± 60 nM
IC50 [15]: 350 nM
CC50 at 48 h [5]: 6400 ± 350 nM
IC50 [16]: 150 nM
CC50 [6]: 180 ± 30 nM
SI HSC-4 [6]: 75.0
IC50 [17]: 210 nM
CC50 at 48 h [7]: 13500 nM
IC50 [18]: 1620 nM
IC50 [19]: 560 nM
IC50 [20]: 240 nM
IC50 [21]: 260 nM
IC50 [22]: 310 nM
CC50 [8]: 120 ± 80 nM
SI Ca9-22 [8]: 113
IC50 [23]: 270 nM
IC50 [24]: 160 nM
CC50 [9]: 660 ± 140 nM
SI HSC-2 [9]: 20.5
CC50 [10]: 320 nM
Average SI [10]: 69.5
IC50 [25]: 160 nM
IC50 [26]: 280 nM
